According to patent US20120323164A1, “PHOTODYNAMIC THERAPY WITH PHTHALOCYANINES AND RADICAL SOURCES” (Case Western Reserve University, priority 2011, published 2012):
“And” between values parts separate entries of the source, which are not always exact repeats. Equal entries are not always repeated. Where two headings read alike, the source gives them in different places.

How the values were obtained:
[1] = for decomp (%) of Pc 4: Pc 4 in toluene ~9 μM, white light 1.2 kJ/s/m^2
Protocol: The beam intensity was checked before each measurement.
Solutions for the photodecomposition experiments were prepared as follows.

[2] = Qualitative solubility in organic solvents
[3] = Photodecomposition of phthalocyanines in toluene under white light, no added radical source; conditions: for decomp (%): toluene ~9 μM, white light 1.2 kJ/s/m^2
Protocol: The distance between the cuvette face and the lamp filament was 30 cm. Determination of the beam intensity at the cuvette face was made with a powermeter (Powermax, pm10, Coherent, Santa Clara, Calif.). The beam intensity was checked before each measurement.
Solutions for the photodecomposition experiments were prepared as follows. […] This assumption was justified on the basis that all of the silicon phthalocyanines studied contained simple, unsubstituted phthalocyanine rings. The extinction coefficients of the aluminum phthalocyanines were assumed to be 2.3×10^5, the extinction coefficient of AlPcOSi(CH3)2(CH2)3N(CH3)2, Pc 1.
The absorbance of the Q band of the solution, A, was determined with a spectrophotometer (Lambda 25, Perkin Elmer, Shelton, Conn.; fused silica cuvettes, 1.00 cm, 3.5 mL, Fisher Scientific). From A, ε, the cuvette path length, b, and Beer's law, the concentration of the solution, c, was determined. The solution was then diluted with toluene to a concentration of 9.2 μM. To verify that this was the concentration of the solution, its absorbance was measured again.
In a typical determination, the solution (3.00 mL) was placed in a cuvette (1.00 cm, 3.5 mL, Fisher Scientific, Pittsburgh, Pa.) and its absorbance was measured with the spectrometer (Lambda 25) before irradiation and at 2, 4, 6 and 8 h.
where A0 is the absorbance of the solution at time 0, and At is the absorbance at time t.

[4] = time 0 h, alkene 1:1000 mole ratio
[5] = time 2 h, alkene 1:1000 mole ratio
[6] = time 4 h, alkene 1:1000 mole ratio
[7] = time 6 h, alkene 1:1000 mole ratio
[8] = time 8 h, alkene 1:1000 mole ratio
[9] = time 2 h, radiation 86 kJ/mol × 10^−6, no added alkene
[10] = time 4 h, radiation 172 kJ/mol × 10^−6, no added alkene
[11] = time 6 h, radiation 258 kJ/mol × 10^−6, no added alkene
[12] = time 8 h, radiation 344 kJ/mol × 10^−6, no added alkene
[13] = time 0 h, alkene 1:100 mole ratio
[14] = time 2 h, alkene 1:100 mole ratio
[15] = time 4 h, alkene 1:100 mole ratio
[16] = time 6 h, alkene 1:100 mole ratio
[17] = time 8 h, alkene 1:100 mole ratio

Row | Molecule | solubility (in words) [2] | decomp (%) ([3]; time 0 h, no added alkene) | decomp (%) [3, 9] | decomp (%) [3, 10] | decomp (%) [3, 11] | decomp (%) [3, 12] | other results
1 | C1=C\CC/C=C\CC/1 [1,5-cyclooctadiene] | – | – | – | – | – | – | decomp (%) of Pc 4 [1, 4]: 0%; decomp (%) of Pc 4 [1, 5]: 23%; decomp (%) of Pc 4 [1, 6]: 49%; decomp (%) of Pc 4 [1, 7]: 69%; decomp (%) of Pc 4 [1, 8]: 83%
2 | CC(C)CCCC(C)CCCC(C)CCOc1cc2c(cc1OCCC(C)CCCC(C)CCCC(C)C)-c1nc-2nc2[nH]c(nc3nc(nc4[nH]c(n1)c1ccccc41)-c1ccccc1-3)c1ccccc21 (centres unmarked) [Pc 272, H2Pc[2,3-O(C2H4CH(CH3)CH2)2C2H4CH(CH3)2]2] | soluble in CH2Cl2 and toluene, and slightly soluble in dimethylformamide and hexanes | – | – | – | – | – | –
3 | C=C[Si](C=C)(C=C)O[Si]1(O[Si](C=C)(C=C)C=C)n2c3c4ccccc4c2N=C2N=C(N=c4c5ccccc5c(n41)=NC1=NC(=N3)c3ccccc31)c1ccccc12 [Pc 279, SiPc[OSi(CH═CH2)3]2] | soluble in CH2Cl2, dimethylformamide, pyridine and toluene, and insoluble in hexanes and methanol | 0 | 0% | 0% | 0% | 0% | photostability (in words) ([3]; white light, toluene, no added alkene): quite stable, remaining unchanged during 8 hours of irradiation
4 | CCCCC/C=C\C/C=C\CCCCCCCC(=O)O.CCCCC/C=C\C/C=C\CCCCCCCC(=O)O.CN(C)CCC[Si](C)(C)O[Si]1(O[Si](C)(C)CCCN(C)C)n2c3c4ccccc4c2N=C2N=C(N=c4c5ccccc5c(n41)=NC1=NC(=N3)c3ccccc31)c1ccccc12 [Pc 289, SiPc[OSi(CH3)2(CH2)3NH(CH3)2]2^2+ [OC(O)(CH2)6(CH2CH═CH)2(CH2)4CH3]2] | soluble in ethanol, CH2Cl2 and dimethylformamide, moderately soluble in toluene, and insoluble in hexanes | 0 | 18% | 19% | 20% | 21% | –
5 | CC/C=C\C/C=C\C/C=C\CCCCCCCC(=O)O.CC/C=C\C/C=C\C/C=C\CCCCCCCC(=O)O.CN(C)CCC[Si](C)(C)O[Si]1(O[Si](C)(C)CCCN(C)C)n2c3c4ccccc4c2N=C2N=C(N=c4c5ccccc5c(n41)=NC1=NC(=N3)c3ccccc31)c1ccccc12 [Pc 290, SiPc[OSi(CH3)2(CH2)3NH(CH3)2]2^2+ [OC(O)(CH2)6(CH2CH═CH)3CH2CH3]2] | soluble in ethanol, CH2Cl2 and dimethylformamide, moderately soluble in toluene, and insoluble in hexanes | – | – | – | – | – | –
6 | CCCCC/C=C\C/C=C\C/C=C\C/C=C\CCCC(=O)O.CCCCC/C=C\C/C=C\C/C=C\C/C=C\CCCC(=O)O.CN(C)CCC[Si](C)(C)O[Si]1(O[Si](C)(C)CCCN(C)C)n2c3c4ccccc4c2N=C2N=C(N=c4c5ccccc5c(n41)=NC1=NC(=N3)c3ccccc31)c1ccccc12 [Pc 291, SiPc[OSi(CH3)2(CH2)3NH(CH3)2]2^2+ [OC(O)(CH2)2(CH2CH═CH)4(CH2)4CH3]2] | soluble in ethanol, CH2Cl2 and dimethylformamide, moderately soluble in toluene, and insoluble in hexanes | 0 | 18% | 19% | 20% | 20% | –
7 | CC/C=C\C/C=C\C/C=C\C/C=C\C/C=C\C/C=C\CCC(=O)O.CC/C=C\C/C=C\C/C=C\C/C=C\C/C=C\C/C=C\CCC(=O)O.CN(C)CCC[Si](C)(C)O[Si]1(O[Si](C)(C)CCCN(C)C)n2c3c4ccccc4c2N=C2N=C(N=c4c5ccccc5c(n41)=NC1=NC(=N3)c3ccccc31)c1ccccc12 [Pc 292, SiPc[OSi(CH3)2(CH2)3NH(CH3)2]2^2+ [OC(O)CH2(CH2CH═CH)6CH2CH3]2^−] | soluble in ethanol, CH2Cl2 and dimethylformamide, moderately soluble in toluene, and insoluble in hexanes | 0 | 20% | 21% | 22% | 22% | –
8 | CC1=C(/C=C/C(C)=C/C=C/C(C)=C/C(=O)O)C(C)(C)CCC1.CC1=C(/C=C/C(C)=C/C=C/C(C)=C/C(=O)O)C(C)(C)CCC1.CN(C)CCC[Si](C)(C)O[Si]1(O[Si](C)(C)CCCN(C)C)n2c3c4ccccc4c2N=C2N=C(N=c4c5ccccc5c(n41)=NC1=NC(=N3)c3ccccc31)c1ccccc12 [Pc 293, SiPc[OSi(CH3)2(CH2)3NH(CH3)2]2^2+ [OC(O)(CH═C(CH3)CH═CH)2C6H6(CH3)3]2] | soluble in ethanol, CH2Cl2 and dimethylformamide, moderately soluble in toluene, and insoluble in hexanes | – | – | – | – | – | –
9 | CCCCCCCC/C=C\CCCCCCCC(=O)O[Si]1(OC(=O)CCCCCCC/C=C\CCCCCCCC)n2c3c4ccccc4c2N=C2N=C(N=c4c5ccccc5c(n41)=NC1=NC(=N3)c3ccccc31)c1ccccc12 [Pc 295, SiPc[OC(O)(CH2)7CH═CH(CH2)7CH3]2] | soluble in CH2Cl2, dimethylformamide, pyridine and toluene, slightly soluble in hexanes, and insoluble in methanol | 0 | 2% | 3% | 3% | 4% | –
10 | CC(C)=CCC/C(C)=C/CC/C(C)=C/CO [farnesol] | – | – | – | – | – | – | effectiveness of alkene in decreasing photostability of Pc 4 (in words) [1]: most effective; decomp (%) of Pc 4 [1, 13]: 0%; decomp (%) of Pc 4 [1, 4]: 0%; decomp (%) of Pc 4 [1, 14]: 13%; decomp (%) of Pc 4 [1, 5]: 79%; decomp (%) of Pc 4 [1, 15]: 20%; decomp (%) of Pc 4 [1, 6]: 93%; decomp (%) of Pc 4 [1, 16]: 38%; decomp (%) of Pc 4 [1, 7]: 99%; decomp (%) of Pc 4 [1, 17]: 50%; decomp (%) of Pc 4 [1, 8]: 99%
11 | CC(C)=CCC/C(C)=C/CO [geraniol] | – | – | – | – | – | – | effectiveness of alkene in decreasing photostability of Pc 4 (in words) [1]: most effective; decomp (%) of Pc 4 [1, 13]: 0%; decomp (%) of Pc 4 [1, 4]: 0%; decomp (%) of Pc 4 [1, 14]: 10%; decomp (%) of Pc 4 [1, 5]: 87%; decomp (%) of Pc 4 [1, 15]: 14%; decomp (%) of Pc 4 [1, 6]: 98%; decomp (%) of Pc 4 [1, 16]: 21%; decomp (%) of Pc 4 [1, 7]: 99%; decomp (%) of Pc 4 [1, 17]: 30%; decomp (%) of Pc 4 [1, 8]: 99%
12 | CCCCC/C=C\C/C=C\CCCCCCCC(=O)O [linoleic acid] | – | – | – | – | – | – | decomp (%) of Pc 4 [1, 4]: 0%; decomp (%) of Pc 4 [1, 5]: 40%; decomp (%) of Pc 4 [1, 6]: 72%; decomp (%) of Pc 4 [1, 7]: 89%; decomp (%) of Pc 4 [1, 8]: 99%
13 | CC(C)=CCC/C(C)=C/CC/C(C)=C/CC/C=C(\C)CC/C=C(\C)CCC=C(C)C [squalene] | – | – | – | – | – | – | decomp (%) of Pc 4 [1, 13]: 0%; decomp (%) of Pc 4 [1, 4]: 0%; decomp (%) of Pc 4 [1, 14]: 50%; decomp (%) of Pc 4 [1, 5]: 57%; decomp (%) of Pc 4 [1, 15]: 75%; decomp (%) of Pc 4 [1, 6]: 81%; decomp (%) of Pc 4 [1, 16]: 87%; decomp (%) of Pc 4 [1, 7]: 92%; decomp (%) of Pc 4 [1, 17]: 94%; decomp (%) of Pc 4 [1, 8]: 96%
14 | CoPc[2,3-O(C2H4CH(CH3)CH2)2C2H4CH(CH3)2]2 [Pc 273] | slightly soluble in CH2Cl2, dimethylformamide, toluene, and hexanes | – | – | – | – | – | –
15 | HOSiPcOSi(CH3)2(CH2)3N(C2H5)2 [Pc 34] | soluble in CH2Cl2, dimethylformamide, and toluene, and insoluble in hexanes | – | – | – | – | – | –
16 | NiPc[2,3-O(C2H4CH(CH3)CH2)2C2H4CH(CH3)2]2 [Pc 274] | slightly soluble in CH2Cl2, dimethylformamide, toluene, and hexanes | – | – | – | – | – | –
17 | SiNc[OSi(CH3)2(CH2)3N(CH3)2]2 [Compound 41] | soluble in CH2Cl2, dimethylformamide, and toluene, and insoluble in hexanes | – | – | – | – | – | –
18 | SiPc[O(CH2)4CH3]2 [Pc 307] | soluble in CH2Cl2, dimethylformamide, pyridine and toluene, and insoluble in hexanes and methanol | 0 | 23% | 55% | 80% | 90% | stability in the dark [3]: stable in the dark
19 | SiPc[O(CH2CH═C(CH3)CH2)2CH2CH═C(CH3)2]2 [Pc 303] | soluble in CH2Cl2, dimethylformamide, pyridine and toluene, and insoluble in hexanes and methanol | 0 | 1% | 2% | 2% | 2% | stability in the dark [3]: stable in the dark
20 | SiPc[OC(O)(CH2)2(CH2CH═CH)4(CH2)4CH3]2 [Pc 299] | soluble in CH2Cl2, dimethylformamide, pyridine and toluene, slightly soluble in hexanes, and insoluble in methanol | 0 | 7% and 12% | 12% and 21% | 14% and 27% | 17% and 33% | –
21 | SiPc[OC(O)(CH2)6(CH2CH═CH)2(CH2)4CH3]2 [Pc 296] | soluble in CH2Cl2, dimethylformamide, pyridine and toluene, slightly soluble in hexanes, and insoluble in methanol | 0 | 2% | 3% | 4% | 5% | –
22 | SiPc[OC(O)CH2(CH2CH═CH)6CH2CH3]2 [Pc 300] | soluble in CH2Cl2, dimethylformamide, pyridine and toluene, slightly soluble in hexanes, and insoluble in methanol | 0 | 16% | 34% | 46% | 56% | –
23 | ZnPc[2,3-O(C2H4CH(CH3)CH2)2C2H4CH(CH3)2]2 [Pc 275] | slightly soluble in CH2Cl2, dimethylformamide, toluene, and hexanes | – | – | – | – | – | –
